The values below come from USRE46943E1, “Radioprotector compounds and methods” (PETER MACCALLUM CANCER INSTITUTE, priority 2010, dated 2018).

The melting point is the temperature of the solid-liquid transition.

In one data set the test system is mice. The data set can be described thus: Radioprotection of mouse jejunum, subcutaneous administration: local reaction at injection site. The data set is classed as in vivo. On the procedure:
2-Hydroxypropyl-β-cyclodextrin (HPCD, Sigma-Aldrich, typical MW 1540) vehicle solution was prepared by dissolving 3.6 g of HPCD in 9.3 mL of phosphate buffered saline (PBS) resulting in 30% v/w solution. […] The concentration of M2PB was measured following appropriate dilution in 45% MeOH 0.1% TFA using an extinction coefficient […] at 345 nm. The M2PB/HPCD stock was diluted to 8.75 mg/mL (22 mM) in HPCD vehicle to produce the final M2PB/HPCD formulation, which was injected subcutaneously into mice, between the shoulder blades (scruff of the neck) at a volume of 8×10^−3 ml/g body weight.
The subsequent irradiation and analysis was as described for Example 56.

The subject of data set [1] is mouse jejunum crypt clonogens. Briefly: Radioprotection of mouse jejunum by intravenous 2PH (surviving crypt clonogens). Format: in vivo, C3H/HeJ mice. The method, then:
C3H/HeJ mice were administered 2PH by intravenous (tail vein) injection (30 mM solution in acetate-buffered saline, pH5; 150 mg/kg) 2 hours prior to whole body irradiation (up to 19 Gy) with ^137Cs γ-rays (GammaCell 40 Irradiator, Nordion International Inc., Canada) at a dose rate of 0.73 Gy/min, in groups of 5. The mice were euthanised 3 days 14 hours post-irradiation and the jejunum excised. Five 1 cm jejunum sections were taken from each mouse and bundled with micropore tape before being fixed in neutral buffered formalin. Samples are then paraffin embedded, sectioned and stained with Hematoxylin-Eosin. The densely stained colonies (>10 cells) arising from proliferation of surviving crypt clonogens were counted and scored on the basis of colonies per circumference.
The data for each of the two experimental groups was fitted to the expression: N(D)=N0(1−e^−Se^−αD) Where: • N0 is the initial number of clonogens per circumference, • N(D) the number of surviving clonogens per circumference after a radiation dose of D Gy, • S is the number of clonogens per crypt, and • α is the reciprocal of radiation dose corresponding to a lethal event.

Setting [2] is: subcutaneous solutions in polyethylene glycol (MW 400), similar experiments with the jejunum model.

Turning to `CN1CCN(c2ccc3nc(-c4ccc5nc(-c6ccccn6)[nH]c5c4)[nH]c3c2)CC1` [Example 2, 2-(5′-(5″-(4′″-Methylpiperazin-1′″-yl)benzimidazol-2″-yl)benzimidazol-2′-yl)pyridine], the “local reaction or toxicity at the site of subcutaneous injection” value in the data set with mice (setting [2]) is given as “had been observed”. Further, in data set [1] (150 mg/kg intravenous 2 hours prior to whole body irradiation, control 0.529+/−0.048), the “α (reciprocal of radiation dose corresponding to a lethal event), derived by curve-fitting” value was 0.431+/−0.039 Gy−1. Besides, the dose modification factor in data set [1] (150 mg/kg intravenous, from α control and α 2PH) was 1.23+/−0.15.

`Cc1ccc(-c2nc3ccc(-c4nc5ccc(N6CCN(C)CC6)cc5[nH]4)cc3[nH]2)nc1` [Example 6, 5-Methyl-2-(5′-(5″-(4′″-methylpiperazin-1′″-yl)benzimidazol-2″-yl)benzimidazol-2′-yl)pyridine] came in with a melting point of 200 to 204 °C.

With `c1ccc(-c2nc3ccc(-c4nc5ccc(N6CCOCC6)cc5[nH]4)cc3[nH]2)nc1` [Example 19, 2-(5′-(5″-Morpholinobenzimidazol-2″-yl)benzimidazol-2′-yl)pyridine], the “local reaction or toxicity at the site of subcutaneous injection” value was “no indication of local reaction or toxicity” in the data set with mice (M2PB/HPCD formulation (complex with 2-hydroxypropyl-β-cyclodextrin), 8.75 mg/mL subcutaneous) and “had been observed” with mice (setting [2]).

With `OC1CCN(c2ccc3nc(-c4ccc5nc(-c6cc7ccccc7cn6)[nH]c5c4)[nH]c3c2)CC1` [Example 23, 3-(5′-(5″-(4′″-Hydroxypiperidin-1′″-yl)benzimidazol-2″-yl)benzimidazol-2′-yl)isoquinoline], the melting point is 222 °C (dec.).
